Source: patent publication US8629150B2, “Compounds for the treatment of hepatitis C” (priority 2011, dated 2014)

Tested on: HCV pseudoparticles (genotype 1a HCV E1 and E2 envelope, H77C isolate)
Experiment: HCV pseudoparticle infection assay (luciferase, Huh7 cells)
Format: cell-based, HCV genotype 1a (H77C isolate)
Conditions: HCV pseudoparticle entry into Huh7 cells, luciferase 2 days after infection
[1] = Hepatitis C virus, Huh-7, 48 h, average of duplicates
[2] = Hepatitis C virus, Huh-7, 48 h, class symbol

| Structure (SMILES) | EC50 [1] [µM] | EC50 [2] [µM] | EC50 (average of duplicates) [µM] | EC50 (class symbol) [µM] |
| --- | --- | --- | --- | --- |
| CC1(C)CNCCCOc2ccc(cc2)CNc2cc(nc(OCC(F)(F)F)n2)Nc2ccc(cc2)C(=O)NC1 [Example 2001] | 0.00134 | < 0.1 | – | – |
| CC1(C)CNCCCOc2ccc(c(F)c2)CNc2cc(nc(OCC(F)(F)F)n2)Nc2ccc(cc2)C(=O)NC1 [Example 2002] | 0.00081 | < 0.1 | – | – |
| O=C1NCC2(CC2)CNCCCOc2ccc(cc2)CNc2cc(nc(OCC(F)(F)F)n2)Nc2ccc1cc2 [Example 2004] | 0.396 | 0.1 to 1 | – | – |
| C=C1CNCC(C)(C)CNC(=O)c2ccc(nc2)Nc2cc(nc(OCC(F)(F)F)n2)NCc2ccc(cc2)OC1 [Compound 1004] | 0.00049 | < 0.1 | – | – |
| C[C@H]1CNCC(C)(C)CNC(=O)c2ccc(nc2)Nc2cc(nc(OCC(F)(F)F)n2)NCc2ccc(cc2)OC1 [Compound 1006] | 0.00045 | < 0.1 | – | – |
| O=C1NCCCOCCCCOCCCNc2cc(nc(OCC(F)(F)F)n2)Nc2ccc1cn2 [Compound 1002] | 0.215 | 0.1 to 1 | – | – |
| CC1CNCC(C)(C)CNC(=O)c2ccc(nc2)Nc2cc(nc(OCC(F)(F)F)n2)NCc2ccc(cc2)OC1 (centres unmarked) [Compound 1005] | 0.00038 | < 0.1 | – | – |
| CC1(C)CNCCCOc2ccc(cc2F)CNc2cc(nc(OCC(F)(F)F)n2)Nc2ccc(cc2)C(=O)NC1 [Example 2003] | 0.00076 | < 0.1 | – | – |
| C[C@H]1CNCCCOc2ccc(cc2)CNc2cc(nc(OCC(F)(F)F)n2)Nc2ccc(cc2)C(=O)NC1 [Example 2005] | 0.184 | 0.1 to 1 | – | – |
| C[C@@H]1CNCC(C)(C)CNC(=O)c2ccc(nc2)Nc2cc(nc(OCC(F)(F)F)n2)NCc2ccc(cc2)OC1 [Compound 1007] | 0.00019 | < 0.1 | – | – |
| CC1(C)CCNC(=O)c2ccc(cc2)Nc2cc(nc(OCC(F)(F)F)n2)NCc2ccc(cc2)OCCCN1 [Compound 1001] | – | – | 0.907 | 0.1 to 1 |
| CC1(C)CNCCCOc2ccc(cc2)CNc2cc(nc(OCC(F)(F)F)n2)Nc2ccc(cn2)C(=O)NC1 [Compound 1003] | 0.00021 | < 0.1 | – | – |
| CC1(C)CCNC(=O)c2ccc(cc2)Nc2cc(nc(OCC(F)(F)F)n2)NCc2ccc(cc2)OCCCN1 [Example 2006] | – | 0.1 to 1 | 0.326 | – |
